Blank lines part the entries; values can stand above or below the compound they belong to.
Key:
[1] = biological target: TRPM7 (Mus musculus, UniProt Q923J1); assay: Aequorin-based Ca2+ influx assay for TRPM7 inhibition; type: cell-based; conditions: for Hill slopes for TRPM7 inhibition: Ca2+ influx assay, logistic equation fits, n = 3; for TRPM7 affinity compared to NS: relative to NS8593 (Figure 1C)
Method: HEK293T cells were transfected with 2 μg TRPM7 plasmid DNA and 0.1 μg pG5A plasmid DNA. After 24 h, the cells were washed with Mg^2+-free HEPES-buffered saline (HBS) containing 140 mM NaCl, 5.4 mM KCl, 0.5 mM CaCl2, 5 mM HEPES (pH 7.4), and 10 mM glucose and resuspended in Mg^2+-free HBS. After 30 min of incubation with 5 μM coelenterazine (Biaffin) at room temperature to reconstitute the aequorin, cells were washed two times by centrifugation at 2,000 rpm for 5 min (Heraeus Pico 17 microcentrifuge, Thermo Fisher Scientific). Then, they were resuspended in Mg^2+-free HBS and plated into 96-well plates. Luminescence was detected at room temperature using a CLARIOstar microplate reader (BMG Labtech). CaCl2-containing Mg^2+-free HBS was injected in the presence or absence of the inhibitors to increase the extracellular Ca^2+ concentration to 5 mM. Cell lysis with 0.1% (v/v) Triton X-100 in the Mg^2+-free HBS was used to terminate the experiment, and total bioluminescence was measured. The analysis of the bioluminescence rates (counts/s) was done in 1-s intervals and calibrated as [Ca^2+]i values using the following equation: p[Ca^2+]i=0,332588(−log(k))+5,5593 k represents the rate of aequorin consumption.
The following equation was used to determine the IC50 values of the inhibitors: E(c)=Emin+[…]/1+c^h/IC50^h
E(c) is the functional effect at the concentration c of the inhibitor, Emin is the minimal effect, Emax is the maximal effect, IC50 is the concentration of the inhibitor that produces the half-maximal effect, and h is the Hill coefficient. GraphPad Prism 8.4.0 was used for fitting.

[2] = tested on: SRF; assay: SRF reporter gene (5×SRE-luciferase) assay; type: cell-based; conditions: HuH7 cells, 24 h; for SRF activity (5×SRE-luciferase): 30 μM; for Reduction in SRF activity: 5 μM
Method: HuH7 cells were seeded in a 12-well plate and transiently transfected with 0.25 μg 5×SRE and 0.15 μg Renilla luciferase simian virus 40 (SV40) promoter reporter as an internal control. The next day, cells were treated with inhibitors, as indicated in the figure legends, and the Dual-Luciferase Reporter Assay System (Promega, Madison, Wisconsin, USA) and the BioFix Lumi-10 (Macherey-Nagel, Düren, Germany) were used. The firefly luciferase activity was normalized to the Renilla luciferase activity to compensate for divergent transfection efficiencies.

[3] = tested on: HuH7 cells; assay: SA-β-Gal staining (cellular senescence) in HuH7 cells; type: cell-based; conditions: for Concentration that significantly increases SA-β-Gal-positive cells (senescence induction): HuH7 cells
Method: (§1) Cellular senescence of treated cells was determined using the Senescence-β-galactosidase staining kit according to the manufacturer’s instructions (Cell Signaling Technology, Danvers, MA, USA). 300 cells were counted. The ratio stained to unstained cells were used to calculate the percentage of SA-β-gal-positive cells.

[4] = biological target: T1, RhoA-TRPM7 interaction (Homo sapiens, UniProt Q96QT4); assay: In situ proximity ligation assay for endogenous TRPM7 and RhoA; type: cell-based; conditions: HuH7 cells, 6 h
T1 construct: proximity ligation assay (PLA) for endogenous TRPM7 and RhoA in HuH7 cells; endogenous in cells; host or cells: HuH7
Method: The DuoLink In situ Red Starter Kit Mouse/Rabbit (Sigma-Aldrich, Merck) was used according to the manufacturer’s protocol for DuoLink In Situ Solutions (Sigma-Aldrich, Merck). Anti-TRPM7/TRPM6 (Abcam, Cambridge, UK), anti-RhoA (NewEast Bioscience, Malvern, PA, USA), anti-MRTF-A (Santa Cruz Biotechnology, Santa Cruz, CA, USA), and anti-Filamin A (Thermo Fisher Scientific, Schwerte, Germany) antibodies were used as primary antibodies for incubation (Table S4). Images were recorded with a fluorescence microscope (Nikon, Düsseldorf, Germany).

[5] = tested on: HuH7 cells; assay: Matrigel invasion assay; type: cell-based; conditions: 20 h
Method: The cell invasion assay was performed using Corning BioCoat Matrigel Invasion Chambers (Corning, Tewksbury, MA, USA) according to the manufacturer’s instructions. 2.5 × 10^4 cells per well were seeded and incubated for 20 h at 37°C. The invaded cells were fixed with methanol, stained with crystal violet, and counted under a light microscope (Carl Zeiss, Oberkochen, Germany).

[6] = tested on: SK3 channels; set-up: method as in Sørensen et al. 22; conditions: relative to NS8593 (Figure 1C); ref Sørensen et al. 22; cited from earlier work
[7] = tested on: MRTF-A; assay: Immunofluorescence of MRTF-A nuclear localization; type: cell-based; conditions: for MRTF-A nuclear localization reduced to: HuH7 and HuH6 cells (Figures 3B and S3A)
Method: Cells were fixated by a 10-min incubation with 4% paraformaldehyde in PBS. To permeabilize the cells, 0.2% Triton X-100 in PBS was used. Blocking was done with 1% BSA in PBS for 30 min at 37°C, followed by incubation with the respective primary antibodies (Table S4) for 1 h at room temperature and the secondary Alexa Fluor 488-coupled antibody (Invitrogen) (Table S5). The nucleus was stained with DAPI (Sigma-Aldrich). Images were taken using a fluorescence microscope (Nikon).

[8] = tested on: HuH7 cells; assay: Cell proliferation assay (cell counting) in HuH7 cells; type: cell-based; conditions: for Inhibitory effects on HCC proliferation as compared to inhibitor 10: 10 μM, 5 days; for Concentration sufficient to cease HCC cell proliferation: titration 10, 7.5, 5, 2.5 μM
Method: (§2) Cells were seeded and counted every 24 h for 5 days by using a Neubauer counting chamber.

[9] = tested on: TSPAN5; assay: Immunoblotting for TSPAN5; type: cell-based; conditions: HuH7 cells
Method: (§3) Proteins were denatured by boiling in Laemmli buffer at 95°C. According to their molecular weight, the proteins were separated by SDS-PAGE for 2 h at 100 V using the Bio-Rad Western Blot System (Bio-Rad, Hercules, California, USA) and the power supply peQPOWER 300 (Peqlab Biotechnology, Erlangen, Germany). The proteins were then transferred onto a polyvinylidene fluoride membrane (Merck, Darmstadt, Germany), which was activated in 100% methanol and equilibrated in a transfer buffer. The transfer was done at 350 mA for approximately 2 h. To avoid non-specific protein binding, the membrane was blocked with 5% milk powder in TBS-T. Afterward, the membrane was incubated over night at 4°C with the primary (Table S2) and the respective secondary antibodies for 1 h at room temperature (Table S3). Both was done with gentle shaking. The proteins were detected via chemiluminescence in a luminescent imager (ChemiDoc Imaging System, Bio-Rad).

[10] = tested on: MRTF-A-GFP; assay: FLIP assay, nuclear export of MRTF-A-GFP; type: cell-based; conditions: HuH7 cells, 5 μM, compared to control cells
Method: HuH7 cells were plated on 35-mm cell culture dishes and transfected with 200 ng MRTF-A-GFP and 800 ng pEF-FLAG plasmid DNA by using JetPrime (Polyplus, Illkirch, France). After treatment of the cells with the respective inhibitor, cells were imaged at 37°C, 5% CO2 in an Okolab Bold Line Cage Incubator using a Carl Zeiss LSM 700 confocal microscope with Axio Imager M2 and W Plan-Apochromat 63×/1.0 dipping objective. The software ZEN 2012 was used. Imaging parameters were as follows: pinhole diameter 1, resolution 256 × 256, bit depth 12, speed 7, line average 1, and zoom 2. The cytoplasm was bleached continuously starting after 3 scans with 2-s intervals using 100% laser power (488 nm/10 mW), and the nuclear fluorescence was recorded. The pre-bleach values were set to 1.

[11] = tested on: TGF-β1; assay: Immunoblotting for TGF-β1; type: cell-based; conditions: HuH7 cells, 5 μM
Method: as §3

[12] = tested on: HuH6 cells; assay: SA-β-Gal staining (cellular senescence) in HuH6 cells; type: cell-based
Method: as §1

[13] = tested on: HuH6 cells; assay: Cell proliferation assay (cell counting) in HuH6 cells; type: cell-based
Method: as §2

Chain of TRPM7 (Q923J1 whole entry): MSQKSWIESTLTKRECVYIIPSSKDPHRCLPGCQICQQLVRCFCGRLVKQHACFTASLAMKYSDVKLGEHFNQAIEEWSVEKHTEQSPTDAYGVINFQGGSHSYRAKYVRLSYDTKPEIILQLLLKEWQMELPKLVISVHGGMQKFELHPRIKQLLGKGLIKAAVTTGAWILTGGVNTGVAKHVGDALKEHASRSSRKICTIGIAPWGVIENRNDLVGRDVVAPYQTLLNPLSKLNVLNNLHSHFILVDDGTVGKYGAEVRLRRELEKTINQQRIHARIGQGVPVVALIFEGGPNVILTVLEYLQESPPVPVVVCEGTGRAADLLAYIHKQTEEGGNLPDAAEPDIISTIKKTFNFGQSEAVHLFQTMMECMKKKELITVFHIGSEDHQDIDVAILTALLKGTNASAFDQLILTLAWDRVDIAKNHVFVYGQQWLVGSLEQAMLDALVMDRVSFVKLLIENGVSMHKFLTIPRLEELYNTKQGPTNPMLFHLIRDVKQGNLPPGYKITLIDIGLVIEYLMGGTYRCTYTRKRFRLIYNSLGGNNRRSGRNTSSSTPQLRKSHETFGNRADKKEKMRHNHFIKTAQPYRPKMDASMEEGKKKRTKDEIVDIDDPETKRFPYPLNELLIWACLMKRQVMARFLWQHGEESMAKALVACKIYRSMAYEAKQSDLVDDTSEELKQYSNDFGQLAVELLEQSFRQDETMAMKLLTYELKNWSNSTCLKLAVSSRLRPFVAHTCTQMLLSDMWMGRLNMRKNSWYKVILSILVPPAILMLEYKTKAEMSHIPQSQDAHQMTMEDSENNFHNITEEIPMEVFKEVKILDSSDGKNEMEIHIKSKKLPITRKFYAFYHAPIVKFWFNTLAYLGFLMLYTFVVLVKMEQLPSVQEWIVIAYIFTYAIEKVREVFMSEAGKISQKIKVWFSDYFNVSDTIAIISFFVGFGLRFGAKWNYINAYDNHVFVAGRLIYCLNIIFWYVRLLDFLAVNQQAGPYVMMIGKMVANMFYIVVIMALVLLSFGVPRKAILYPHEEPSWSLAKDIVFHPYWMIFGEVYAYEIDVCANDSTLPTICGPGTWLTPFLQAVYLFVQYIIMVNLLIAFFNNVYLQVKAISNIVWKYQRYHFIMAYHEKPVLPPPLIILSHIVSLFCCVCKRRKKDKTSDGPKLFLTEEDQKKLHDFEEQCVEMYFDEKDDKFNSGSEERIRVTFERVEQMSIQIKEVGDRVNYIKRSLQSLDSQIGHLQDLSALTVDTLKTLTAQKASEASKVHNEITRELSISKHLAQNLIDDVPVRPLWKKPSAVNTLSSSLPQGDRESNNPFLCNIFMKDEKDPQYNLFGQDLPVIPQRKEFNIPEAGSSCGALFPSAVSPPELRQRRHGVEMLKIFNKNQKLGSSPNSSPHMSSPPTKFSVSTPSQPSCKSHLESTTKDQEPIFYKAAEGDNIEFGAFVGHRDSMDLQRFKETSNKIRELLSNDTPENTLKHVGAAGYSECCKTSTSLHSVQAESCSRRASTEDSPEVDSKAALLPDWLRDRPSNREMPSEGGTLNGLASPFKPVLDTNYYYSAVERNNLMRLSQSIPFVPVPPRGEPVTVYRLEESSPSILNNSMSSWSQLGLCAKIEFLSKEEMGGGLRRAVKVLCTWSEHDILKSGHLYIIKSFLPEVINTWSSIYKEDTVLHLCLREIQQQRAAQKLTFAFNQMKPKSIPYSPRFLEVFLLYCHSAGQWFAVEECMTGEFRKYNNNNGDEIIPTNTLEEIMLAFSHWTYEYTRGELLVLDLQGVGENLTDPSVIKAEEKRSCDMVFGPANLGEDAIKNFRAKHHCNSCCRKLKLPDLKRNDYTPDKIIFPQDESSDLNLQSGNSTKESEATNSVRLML
T1 sequence (Q96QT4 whole entry): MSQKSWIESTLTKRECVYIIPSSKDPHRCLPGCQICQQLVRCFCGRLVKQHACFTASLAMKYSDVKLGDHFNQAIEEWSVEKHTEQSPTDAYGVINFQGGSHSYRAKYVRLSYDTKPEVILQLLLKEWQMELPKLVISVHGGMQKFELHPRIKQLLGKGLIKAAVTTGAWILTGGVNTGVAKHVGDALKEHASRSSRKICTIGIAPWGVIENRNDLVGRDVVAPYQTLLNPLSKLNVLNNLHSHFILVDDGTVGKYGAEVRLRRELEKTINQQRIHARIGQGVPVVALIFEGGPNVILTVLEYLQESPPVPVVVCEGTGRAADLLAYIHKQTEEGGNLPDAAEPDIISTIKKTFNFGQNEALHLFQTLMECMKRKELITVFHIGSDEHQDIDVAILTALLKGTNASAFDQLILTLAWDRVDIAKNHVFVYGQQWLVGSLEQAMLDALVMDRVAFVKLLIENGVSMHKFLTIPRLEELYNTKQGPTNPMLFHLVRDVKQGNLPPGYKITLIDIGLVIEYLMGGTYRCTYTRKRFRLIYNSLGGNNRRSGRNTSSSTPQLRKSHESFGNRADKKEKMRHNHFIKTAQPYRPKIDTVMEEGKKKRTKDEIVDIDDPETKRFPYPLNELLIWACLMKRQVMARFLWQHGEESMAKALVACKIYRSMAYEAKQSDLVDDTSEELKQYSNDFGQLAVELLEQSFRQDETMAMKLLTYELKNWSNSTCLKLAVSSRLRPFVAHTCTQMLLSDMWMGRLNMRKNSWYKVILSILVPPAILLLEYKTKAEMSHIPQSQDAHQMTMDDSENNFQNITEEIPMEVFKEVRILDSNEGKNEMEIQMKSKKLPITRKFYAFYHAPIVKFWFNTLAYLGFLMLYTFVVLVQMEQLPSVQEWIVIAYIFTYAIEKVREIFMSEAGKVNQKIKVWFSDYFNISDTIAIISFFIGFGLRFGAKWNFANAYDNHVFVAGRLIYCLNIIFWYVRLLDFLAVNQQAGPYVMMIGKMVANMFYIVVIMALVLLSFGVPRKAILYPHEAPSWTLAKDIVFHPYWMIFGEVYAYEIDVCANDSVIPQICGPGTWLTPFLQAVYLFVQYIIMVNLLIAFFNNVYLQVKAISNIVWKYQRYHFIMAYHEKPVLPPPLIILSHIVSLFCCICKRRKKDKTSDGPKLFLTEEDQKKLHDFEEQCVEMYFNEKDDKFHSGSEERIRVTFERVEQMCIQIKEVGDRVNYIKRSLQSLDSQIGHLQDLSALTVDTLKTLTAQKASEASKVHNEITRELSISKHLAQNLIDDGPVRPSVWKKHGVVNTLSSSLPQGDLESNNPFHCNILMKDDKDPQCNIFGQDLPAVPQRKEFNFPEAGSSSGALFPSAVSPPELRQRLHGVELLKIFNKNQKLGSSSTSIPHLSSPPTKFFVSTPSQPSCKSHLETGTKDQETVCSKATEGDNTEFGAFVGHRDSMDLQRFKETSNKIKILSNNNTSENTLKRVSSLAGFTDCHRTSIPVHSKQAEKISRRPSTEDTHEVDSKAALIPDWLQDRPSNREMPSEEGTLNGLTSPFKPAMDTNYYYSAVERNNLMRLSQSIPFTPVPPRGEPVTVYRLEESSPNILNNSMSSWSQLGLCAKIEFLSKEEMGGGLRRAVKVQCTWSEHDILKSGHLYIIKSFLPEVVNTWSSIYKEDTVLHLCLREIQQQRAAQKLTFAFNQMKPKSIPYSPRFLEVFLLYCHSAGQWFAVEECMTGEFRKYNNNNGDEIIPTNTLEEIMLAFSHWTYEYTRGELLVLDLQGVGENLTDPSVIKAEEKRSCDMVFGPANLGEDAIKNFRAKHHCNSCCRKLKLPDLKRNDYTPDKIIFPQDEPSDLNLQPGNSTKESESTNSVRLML

Compound: c1ccc2c(c1)CCCC2Nc1nc2ccccc2[nH]1 (stereo not drawn) [NS8593, reference compound]
Hill slopes for TRPM7 inhibition [1]: -1.432

Compound: c1ccc2c(c1)CCCC2Nc1nc2ccccc2[nH]1 (stereo not drawn) [compound 1]
SRF activity (5×SRE-luciferase) [2]: strong decrease | Concentration that significantly increases SA-β-Gal-positive cells (senescence induction) [3]: 20 µM | RhoA-TRPM7 interaction (PLA) ([4]; 30 μM): inhibited RhoA-TRPM7 interaction | Hill slopes for TRPM7 inhibition ([1]; rNS): -1.370 | TRPM7 affinity compared to NS [1]: =NS | Penetration of HuH7 cells into Matrigel ([5]; 30 μM): strongly impaired | SK3 affinity compared to NS [6]: =NS | inhibition at 30 µM ([7]; Homo sapiens, Huh-7, HuH7 cells, 30 μM (Figure 3B)): 50%

Compound: Fc1ccc2c(c1)C(Nc1nc3ccccc3[nH]1)CCC2 (stereo not drawn) [compound 2]
Hill slopes for TRPM7 inhibition [1]: -1.165 | TRPM7 affinity compared to NS [1]: <NS | SK3 affinity compared to NS [6]: >NS

Compound: COc1ccc2c(c1)C(Nc1nc3ccccc3[nH]1)CCC2 (stereo not drawn) [compound 3]
Hill slopes for TRPM7 inhibition [1]: -1.224 | TRPM7 affinity compared to NS [1]: <NS | SK3 affinity compared to NS [6]: =NS

Compound: Cc1ccc2c(c1)C(Nc1nc3ccccc3[nH]1)CCC2 (stereo not drawn) [compound 4]
Hill slopes for TRPM7 inhibition [1]: -1.123 | TRPM7 affinity compared to NS [1]: <NS | SK3 affinity compared to NS [6]: >NS

Compound: c1ccc(-c2cccc(Nc3nc4ccccc4[nH]3)c2)cc1 [compound 10]
SRF activity decreased to ([2]; 10 μM): 25% | Localization of endogenous MRTF-A ([7]; HuH7 cells, 5 μM, 18 h): cytoplasmic

Compound: CC(C)c1ccc(-c2cccc(Nc3nc4ccccc4[nH]3)c2)cc1 [compound 14]
Concentration at which SRF activity is significantly reduced [2]: 2.5 µM | Effect on cell proliferation ([8]; 10 μM (Figure 6C)): proliferation arrest | Inhibitory effects on HCC proliferation as compared to inhibitor 10 [8]: significantly improved | Concentration sufficient to cease HCC cell proliferation [8]: 2.5 µM | Effect on cell proliferation ([13]; 10 µM (Figure S5A)): proliferation arrest

Compound: Fc1cccc(-c2cccc(Nc3nc4ccccc4[nH]3)c2)c1 [compound 16]
Concentration at which SRF activity is significantly reduced [2]: 2.5 µM | Effect on cell proliferation ([8]; 10 μM (Figure 6C)): proliferation arrest | Inhibitory effects on HCC proliferation as compared to inhibitor 10 [8]: significantly improved | Concentration sufficient to cease HCC cell proliferation [8]: 2.5 µM | Concentration that significantly increases SA-β-Gal-positive cells (senescence induction) [3]: 2.5 µM | Effect on cell proliferation ([13]; 10 µM (Figure S5A)): proliferation arrest

Now from value to compound, other results behind:

SRF activity (5×SRE-luciferase) [2]: strong decrease | RhoA-TRPM7 interaction (PLA) ([4]; 5 μM): inhibited RhoA-TRPM7 interaction | Hill slopes for TRPM7 inhibition [1]: -1.448 | TRPM7 affinity compared to NS [1]: >NS
Compound: Clc1cccc2c1CCCC2Nc1nc2ccccc2[nH]1 (stereo not drawn) [compound 5]
Reduction in SRF activity [2]: 60% | Concentration at which HuH7 cell growth is already significantly reduced ([8]; titration 2.5, 5, 7.5, 10 μM): 2.5 µM | TSPAN5 expression (protein level) ([9]; 5 μM): almost completely abolished | Concentration that significantly increases SA-β-Gal-positive cells (senescence induction) [3]: 5 µM | Fold lower concentration than NS8593 for inducing OIS ([3]; compared with NS8593): 6 fold | MRTF-A-GFP fluorescence remaining in the nucleus after 80 s of bleaching [10]: less MRTF-A-GFP fluorescence remaining in the nucleus | Penetration of HuH7 cells into Matrigel ([5]; 5 μM): strongly impaired | SK3 affinity compared to NS [6]: =NS | TGF-β1 expression (protein level) [11]: almost completely abolished | MRTF-A nuclear localization reduced to ([7]; 5 μM): 12% | Concentration that significantly increases SA-β-Gal-positive cells (senescence induction) [12]: 5 µM

Hill slopes for TRPM7 inhibition [1]: -1.292 | TRPM7 affinity compared to NS [1]: =NS
Compound: Clc1cc2c(cc1Cl)C(Nc1nc3ccccc3[nH]1)CCC2 (stereo not drawn) [compound 6]
SK3 affinity compared to NS [6]: >NS

Hill slopes for TRPM7 inhibition [1]: -0.9579 | TRPM7 affinity compared to NS [1]: <NS
Compound: c1ccc2[nH]c(NC3CCCc4ccncc43)nc2c1 (stereo not drawn) [compound 7]
Effect on cell proliferation ([8]; 30 μM NS, rNS, 2, 3, 7, 8, 10 μM 4, 5, 6, 5 days): decreased cell proliferation only marginally | Effect on cell proliferation ([13]; 30 µM NS8593, 2, 3, 7, 8, 10 µM 4, 5, 6, 5 days): decreased cell proliferation only marginally | SK3 affinity compared to NS [6]: <NS

SRF activity (5×SRE-luciferase) [2]: strong decrease | RhoA-TRPM7 interaction (PLA) ([4]; 30 μM): inhibited RhoA-TRPM7 interaction | Hill slopes for TRPM7 inhibition [1]: -1.210 | TRPM7 affinity compared to NS [1]: <NS
Compound: c1ccc2[nH]c(NC3CCCc4sccc43)nc2c1 (stereo not drawn) [compound 8]
Reduction in SRF activity [2]: 30% | Concentration required to significantly reduce TSPAN5 expression [9]: 20 µM | Concentration that significantly increases SA-β-Gal-positive cells (senescence induction) [3]: 20 µM | Penetration of HuH7 cells into Matrigel ([5]; 30 μM): strongly impaired | SK3 affinity compared to NS [6]: <NS | MRTF-A nuclear localization reduced to ([7]; 30 μM): 12%

SRF reporter gene activity ([2]; 10 μM): remained largely unchanged
Compound: c1ccc(-c2ccccc2Nc2nc3ccccc3[nH]2)cc1 [compound 9]

SRF reporter gene activity ([2]; 10 μM): remained largely unchanged
Compound: Fc1ccc(-c2ccccc2Nc2nc3ccccc3[nH]2)cc1 [compound 13]

Source: PMC11387234, “Identification of novel inhibitors of the transcriptional coactivator MRTF-A for HCC therapy” (Molecular Therapy Oncology, 2024)
